The values that follow are results of earlier work, collected in US6482832B1, “Heterocyclically substituted amides, their production and their use” (Abbott Laboratories, priority 1998, dated 2002).

The subject of data set [1] is cells. The following applies: surmount the cell membrane only with difficulty.
Data set [2] has as its system calpain.
For data set [3], the system named is calpain-mediated cleavage of pp60src in platelets. The following applies: activated platelets; Oda et al., J. Biol. Chem. 1993.

Like-named read-outs stand apart in the source and are kept apart here.

As to `CC(=O)N[C@@H](CC(C)C)C(=O)N[C@@H](CC(C)C)C(=O)N[C@H](C=O)CCCNC(=N)N` [leupeptin], the effect on cells entry in data set [1] is “poor effect on cells”. For the same compound, the calpain inhibition result in data set [2] (known calpain inhibitors) was “good calpain inhibitors”.

For the compound `CCCC[C@@H](C=O)NC(=O)[C@H](CC(C)C)NC(=O)OCc1ccccc1` [calpeptin], the “cleavage of pp60src” value in data set [3] is “can prevent the cleavage of pp60src”.

Regarding Ph—CONH—CH(CH2Ph)—CO—COCOOCH3, the calpain inhibition entry in data set [2] (M. R. Angelastro et al., J. Med. Chem. 1990, 33, 11-13) is given as “only a weak calpain inhibitor”.

For the compound `CC(C)C[C@H](NC(=O)[C@H]1O[C@@H]1C(=O)O)C(=O)NCCCCN=C(N)N` [E 64], the effect on cells result in data set [1] is “poor effect on cells”. Besides, the calpain inhibition entry in data set [2] (known calpain inhibitors) is given as “good calpain inhibitors”.
